# In US20140309229A1, “METHODS FOR SELECTING AND TREATING CANCER IN PATIENTS WITH IGF-1R/IR INHIBITORS” (priority 2011, published 2014):
# Legend:
# Assay in all cases: MTS proliferation assay
# Assay type in all cases: cell-based, human
# HCT8 = tested on: HCT8
# Procedure: (§1) Cell lines and in vitro cytotoxicity assay. Cells were maintained at 37° C. under standard cell culture conditions. Cells were plated at an optimized density for each cell line per well in 96-well microtiter FALCON® plates, incubated overnight, and then exposed to a serial dilution of drug. […] The results were expressed as an IC50, which is the drug concentration required to inhibit cell proliferation to 50% of that of untreated control cells. The mean IC50 and standard deviation (SD) from multiple tests for each cell line were calculated.
# (§2) In vitro Cellular Proliferation Assays.
# NCI-H747 = tested on: NCI-H747
# Procedure: as §1, §2
# SNU-407 = tested on: SNU-407
# Procedure: as §1, §2
# LoVo = tested on: LoVo
# Procedure: as §1, §2
# SW48 = tested on: SW48
# Procedure: as §1, §2
# CACO-2 = tested on: CACO-2
# Procedure: as §1, §2
# HCC-56 = tested on: HCC-56
# Procedure: as §1, §2
# CX-1 = tested on: CX-1
# Procedure: as §1, §2
# DLD-1 = settings: for IC50: Homo sapiens
# Procedure: as §1, §2
# RKO PM = tested on: RKO PM
# Procedure: as §1, §2
# NCI-H716 = tested on: NCI-H716
# Procedure: as §1, §2
# SW948 = tested on: SW948
# Procedure: as §1, §2
# LS-1034 = tested on: LS-1034
# Procedure: as §1, §2
# LS174T = tested on: LS174T
# Procedure: as §1, §2
# CCD18CO = tested on: CCD18CO
# Procedure: as §1, §2
# RKO = tested on: RKO
# Procedure: as §1, §2
# OUMS-23 = tested on: OUMS-23
# Procedure: as §1, §2
# CW-2 = tested on: CW-2
# Procedure: as §1, §2
# HT-29 = tested on: HT-29
# Procedure: as §1, §2
# LS-180 = tested on: LS-180
# Procedure: as §1, §2
# WIDR = tested on: WIDR
# Procedure: as §1, §2
# COLO741 = tested on: COLO741
# Procedure: as §1, §2
# HCC2998 = tested on: HCC2998
# Procedure: as §1, §2
# SW403 = tested on: SW403
# Procedure: as §1, §2
# COLO-201 = tested on: COLO-201
# Procedure: as §1, §2
# LS-411N = tested on: LS-411N
# Procedure: as §1, §2
# HT55 = tested on: HT55
# Procedure: as §1, §2
# NCI-H508 = tested on: NCI-H508
# Procedure: as §1, §2
# SW620 = tested on: SW620
# Procedure: as §1, §2
# [1] = preliminary panel of 45 CRC cell lines
smiles,measurement,setting,value
"C[C@@]1(C(=O)Nc2ccc(F)nc2)CCCN1c1nc(Nc2cc(C3CC3)n[nH]2)c2cccn2n1 [BMS-754807, (2S)-1-(4-((5-cyclopropyl-1H-pyrazol-3-yl)amino)pyrrolo[2,1-f][1,2,4]triazin-2-yl)-N-(6-fluoro-3-pyridinyl)-2-methyl-2-pyrrolidinecarboxamide]",Sensitivity Classes,HCT8; HCT8,R (“R” refers Resistant)
same,Sensitivity to BMS-754807,"HCT8; HCT8, preliminary panel of 45 CRC cell lines",Resistant (resistant cell lines had IC50 values of >50 nmol/L)
same,IC50,"HCT8; Homo sapiens, HCT-8, 72 h",4860 nM
same,IC50,"NCI-H747; Homo sapiens, NCI-H747, 72 h",1160 nM
same,Sensitivity Classes,NCI-H747; NCI-H747,R (“R” refers Resistant)
same,Sensitivity to BMS-754807,"NCI-H747; NCI-H747, preliminary panel of 45 CRC cell lines",Resistant (resistant cell lines had IC50 values of >50 nmol/L)
same,IC50,"SNU-407; Homo sapiens, SNU-407, 72 h",13 nM
same,Sensitivity Classes,SNU-407; SNU-407,S (“S” refers Sensitive)
same,IC50,"LoVo; Homo sapiens, LoVo, 72 h",3870 nM
same,Sensitivity to BMS-754807,"LoVo; LOVO, preliminary panel of 45 CRC cell lines",Resistant (resistant cell lines had IC50 values of >50 nmol/L)
same,Sensitivity Classes,LoVo; LoVo,R (“R” refers Resistant)
same,IC50,"SW48; Homo sapiens, SW48, 72 h",13 nM
same,Sensitivity Classes,SW48; SW48,S (“S” refers Sensitive)
same,Sensitivity to BMS-754807,"SW48; SW48, preliminary panel of 45 CRC cell lines",Sensitive (a sensitive cell line was classified as one with an IC50 of ≦50 nmol/L)
same,Sensitivity Classes,CACO-2; CACO-2,R (“R” refers Resistant)
same,Sensitivity to BMS-754807,"CACO-2; CACO-2, preliminary panel of 45 CRC cell lines",Resistant (resistant cell lines had IC50 values of >50 nmol/L)
same,IC50,"CACO-2; Homo sapiens, Caco-2, 72 h",5500 nM
same,Sensitivity Classes,HCC-56; HCC-56,S (“S” refers Sensitive)
same,IC50,"HCC-56; Homo sapiens, 72 h",5 nM
same,Sensitivity Classes,CX-1; CX-1,R (“R” refers Resistant)
same,Sensitivity to BMS-754807,"CX-1; CX-1, preliminary panel of 45 CRC cell lines",Intermediate (remaining 30 cell lines classified as Intermediate or resistant)
same,IC50,"CX-1; Homo sapiens, CX-1, 72 h",194 nM
same,Sensitivity Classes,DLD-1; DLD-1,R (“R” refers Resistant)
same,Sensitivity to BMS-754807,"DLD-1; DLD-1, preliminary panel of 45 CRC cell lines",Resistant (resistant cell lines had IC50 values of >50 nmol/L)
same,IC50,DLD-1; DLD-1,666 nM
same,IC50,"DLD-1; DLD-1, 72 h",666 nM
same,IC50,"RKO PM; Homo sapiens, 72 h",857 nM
same,Sensitivity Classes,RKO PM; RKO PM,R (“R” refers Resistant)
same,Sensitivity to BMS-754807,"RKO PM; RKO PM, preliminary panel of 45 CRC cell lines",Resistant (resistant cell lines had IC50 values of >50 nmol/L)
same,IC50,"NCI-H716; Homo sapiens, NCI-H716, 72 h",217 nM
same,Sensitivity Classes,NCI-H716; NCI-H716,R (“R” refers Resistant)
same,Sensitivity to BMS-754807,"NCI-H716; NCI-H716, preliminary panel of 45 CRC cell lines",Intermediate (remaining 30 cell lines classified as Intermediate or resistant)
same,IC50,"SW948; Homo sapiens, SW948, 72 h",18 nM
same,Sensitivity Classes,SW948; SW948,S (“S” refers Sensitive)
same,Sensitivity to BMS-754807,"SW948; SW948, preliminary panel of 45 CRC cell lines",Sensitive (a sensitive cell line was classified as one with an IC50 of ≦50 nmol/L)
same,IC50,"LS-1034; Homo sapiens, LS-1034, 72 h",44 nM
same,Sensitivity to BMS-754807,"LS-1034; LS1034, preliminary panel of 45 CRC cell lines",Sensitive (a sensitive cell line was classified as one with an IC50 of ≦50 nmol/L)
same,Sensitivity Classes,LS-1034; LS-1034,S (“S” refers Sensitive)
same,Sensitivity Classes,LS174T,R (“R” refers Resistant)
same,IC50,"LS174T; Homo sapiens, 72 h",358 nM
same,Sensitivity to BMS-754807,LS174T; [1],Intermediate (remaining 30 cell lines classified as Intermediate or resistant)
same,Sensitivity Classes,CCD18CO; CCD18CO,R (“R” refers Resistant)
same,Sensitivity to BMS-754807,"CCD18CO; CCD18CO, preliminary panel of 45 CRC cell lines",Resistant (resistant cell lines had IC50 values of >50 nmol/L)
same,IC50,"CCD18CO; Homo sapiens, CCD-18Co, 72 h",2560 nM
same,Sensitivity Classes,RKO,R (“R” refers Resistant)
same,IC50,"RKO; Homo sapiens, 72 h",857 nM
same,Sensitivity to BMS-754807,RKO; [1],Resistant (resistant cell lines had IC50 values of >50 nmol/L)
same,IC50,"OUMS-23; Homo sapiens, OUMS-23, 72 h",2220 nM
same,Sensitivity Classes,OUMS-23; OUMS-23,R (“R” refers Resistant)
same,Sensitivity Classes,CW-2; CW-2,R (“R” refers Resistant)
same,IC50,"CW-2; Homo sapiens, CW-2, 72 h",586 nM
same,Sensitivity to BMS-754807,"HT-29; HT29, preliminary panel of 45 CRC cell lines",Intermediate (remaining 30 cell lines classified as Intermediate or resistant)
same,Sensitivity Classes,HT-29; HT-29,R (“R” refers Resistant)
same,IC50,"HT-29; Homo sapiens, HT-29, 72 h",451 nM
same,IC50,"LS-180; Homo sapiens, LS180, 72 h",629 nM
same,Sensitivity to BMS-754807,"LS-180; LS180, preliminary panel of 45 CRC cell lines",Resistant (resistant cell lines had IC50 values of >50 nmol/L)
same,Sensitivity Classes,LS-180; LS-180,R (“R” refers Resistant)
same,IC50,"WIDR; Homo sapiens, WiDr, 72 h",194 nM
same,Sensitivity Classes,WIDR; WIDR,R (“R” refers Resistant)
same,Sensitivity to BMS-754807,"WIDR; WIDR, preliminary panel of 45 CRC cell lines",Intermediate (remaining 30 cell lines classified as Intermediate or resistant)
same,Sensitivity Classes,COLO741; COLO741,R (“R” refers Resistant)
same,IC50,"COLO741; Homo sapiens, COLO-741, 72 h",1350 nM
same,Sensitivity Classes,HCC2998; HCC2998,R (“R” refers Resistant)
same,IC50,"HCC2998; Homo sapiens, HCC 2998, 72 h",380 nM
same,IC50,"SW403; Homo sapiens, SW-403, 72 h",34 nM
same,Sensitivity Classes,SW403; SW403,S (“S” refers Sensitive)
same,Sensitivity to BMS-754807,"SW403; SW403, preliminary panel of 45 CRC cell lines",Sensitive (a sensitive cell line was classified as one with an IC50 of ≦50 nmol/L)
same,Sensitivity to BMS-754807,"COLO-201; COLO201, preliminary panel of 45 CRC cell lines",Resistant (resistant cell lines had IC50 values of >50 nmol/L)
same,Sensitivity Classes,COLO-201; COLO-201,R (“R” refers Resistant)
same,IC50,"COLO-201; Homo sapiens, COLO 201, 72 h",2760 nM
same,IC50,"LS-411N; Homo sapiens, LS-411N, 72 h",99 nM
same,Sensitivity to BMS-754807,"LS-411N; LS411N, preliminary panel of 45 CRC cell lines",Intermediate (remaining 30 cell lines classified as Intermediate or resistant)
same,Sensitivity Classes,LS-411N; LS-411N,R (“R” refers Resistant)
same,Sensitivity Classes,HT55; HT55,S (“S” refers Sensitive)
same,IC50,"HT55; Homo sapiens, HT55, 72 h",3 nM
same,Sensitivity to BMS-754807,"NCI-H508; H508, preliminary panel of 45 CRC cell lines",Sensitive (a sensitive cell line was classified as one with an IC50 of ≦50 nmol/L)
same,IC50,"NCI-H508; Homo sapiens, NCI-H508, 72 h",11 nM
same,Sensitivity Classes,NCI-H508; NCI-H508,S (“S” refers Sensitive)
same,IC50,"SW620; Homo sapiens, SW-620, 72 h",1830 nM
same,Sensitivity Classes,SW620; SW620,R (“R” refers Resistant)
same,Sensitivity to BMS-754807,"SW620; SW620, preliminary panel of 45 CRC cell lines",Resistant (resistant cell lines had IC50 values of >50 nmol/L)
